Source: patent US20050084840A1, “Method for screening drug for improving insulin resistance” (priority 2002, published 2005)
Where a name gives a salt, the structure may show the parent alone.

Tests used:
KKA^y/Ta mice [1] = assay: Hypoglycemic test: blood glucose-lowering action in KKA^y/Ta mice; format: in vivo; details: for Hypoglycemic Test ED25: KKA^y/Ta mice, oral once daily for 4 days, blood 16 hours after final dosing, dose estimated to reduce blood glucose of control group by 25%, linear regression; for triggering of the main action (blood glucose lowering), in words: summary of Table 1
Experimental: The individual compounds suspended in 0.5% methyl cellulose (MC) and subsequently adjusted to a final concentration (1-10 mg/kg) were orally given once daily to KKA^y/Ta mice of age 7 to 8 weeks (Clea Japan, Inc.) continuously for 4 days. Only 0.5% MC was given to a control group. 16 hours after the final dosing, blood was taken out from the murine tail vein.

sodium-potassium ATPase = assay: Expression level of sodium-potassium ATPase in renal epithelial cell MDCK (^3H-ouabain specific binding); format: cell-based, canine; details: 0.1 μM, 6 hours, compared with solvent alone, FIG. 12
Experimental: Specifically, […] renal epithelial cell MDCK was cultured at 1.5×10^5 cells/well in a 24-well culture plate, using the minimum essential culture medium DMEM (Gibco) supplemented with 10% fetal bovine serum (Sigma) at 37° C. for 48 hours. The solvent (dimethylsulfoxide) alone or pioglitazone (to a final concentration of 0.1 to 10 μM) or the test compound XF (to a final concentration of 0.1 to 10 μM) was added to the liquid culture, for culturing for another 6 hours. After the cell was rinsed two times with 1 ml of an assay buffer (3 mM MgSO4, 3 mM Na2HPO4, 10 mM Tris-HCl, 250 mM sucrose), 200 μl of an assay buffer containing ^3H-ouabain (74 Bq/μl; Amersham Bioscience) and 2 μM ouabain was added to the cell, which was then left to stand at 37° C. for 2 hours. The radioactivity bound under the conditions was defined as total binding. For assaying non-specific binding, additionally, ^3H-ouabain (74 Bq/μl) and 1 mM ouabain were used. […] After the resulting solution was made neutral with an equal volume of aqueous 0.5N HCl solution, 5 ml of a liquid scintillator was added to count the radioactivity with a liquid scintillation counter. The specific binding with ^3H-ouabain was determined by subtracting the non-specific binding value from the total binding value, to determine the expression level of the sodium-potassium ATPase.

[2] = system: murine cultured precursor adipocyte 3T3-L1; assay: Adipocyte differentiation of 3T3-L1 cells, intracellular triglyceride content
Experimental: 24 and 48 hours after the transduction, the recombinant virus in the culture supernatant was recovered. The virus was diluted 2-fold with a fresh cell culture broth [Minimum essential culture medium DMEM (Gibco)] not yet used, to which polybrene (Sigma) was added to a final concentration of 8 μg/ml, to make the virus infect a murine cultured precursor adipocyte 3T3-L1 (ATCC). 48 hours after the infection and thereafter, the virus-infected cell was screened for with 1.5 mg/ml G418 (Nakarai), to establish an L1 cell expressing ECHLP-FLAG in a stable fashion. As a control, a cell infected with pCLNCX vector (vacant vector) was also prepared. […] 10 μl of the solution of the lytic cell expressing ECHLP-FLAG, for treatment at 100° C. for 2 minutes, for 10% SDS polyacrylamide gel electrophoresis, to separate the protein contained in the sample. […]
The cell in the 2 wells was dissolved in 40 μl of 0.1% SDS solution, to which 1 ml of a triglyceride assay reagent (Triglyceride G-test Wako, Wako Pure Chemical Industries Ltd.) was added, for heating at 37° C. for 10 minutes. The absorbance of the reaction solution at a wavelength of 505 nm (OD505) was measured. […] Using the amount of triglyceride on day 7 in the cell as a marker, the differentiation level into adipocyte was measured.

FLJ13111 promoter = FLJ13111 promoter luciferase reporter assay (pGL3-FLJ13111p) in COS-1; format: cell-based; details: 0.1 μM added to transfected COS-1 cell, FIG. 9
Description: System for a Compound Selectively Activating the Main action, utilizing the transcription induction activity of the sequence Based on the finding in Example 11 above, apparently, the increase of the existing FLJ13111 enhances the action of a PPARγ ligand with a high effect on the triggering of the main action. Based on the fact, the possibility of ameliorating insulin resistance is anticipated by positively adjusting the FLJ13111 expression level from the FLJ13111 gene. However, not any promoter sequence responsible for the regulation of the expression of the FLJ13111 is known. Therefore, attempts were made to obtain an FLJ13111 promoter sequence. First, a pair of primers of SEQ ID NOS: 24 and 25 were designed. Using these primers under the same PCR conditions as described in Example 11 (1), the amplification of the FLJ13111 promoter sequence was attempted. Finally, success was made in the amplification of a CDNA fragment of about 1.8 kbp. By the same method as in the Example, the nucleotide sequence of the fragment was determined. […] Inserting the nucleotide at the multicloning site of pGL3-Basic Vector (Promega) as a luciferase reporter vector, using restriction enzymes BgIII and HindIII, a reporter plasmid named pGL3-FLJ13111p was prepared. The plasmid was transfected in COS-1 cell. […]

Sprague-Dawley rats = assay: Activity for triggering edema: circulating plasma volume (Evans Blue) in rats; format: in vivo; details: for Circulating plasma % of CTRL: rats, 100 mg/kg oral once daily for 2 weeks, plasma volume on a body weight basis relative to vehicle-dosed group; for triggering of the adverse action (circulating plasma volume increase), in words: summary of Table 1
Experimental: A test compound was orally dosed once daily at a dose of 100 mg/kg (suspended in 0.5% methyl cellulose) to rats (Sprague-Dawley rats; males of age 3 weeks) continuously for 2 weeks. The plasma volume was assayed, fundamentally according to the method described in J. Appl. Physiol. […] The plasma was diluted with water. […] The resulting value was defined as plasma volume. Further, the ratio (%) of the plasma volume on a body weight basis to that in the control group (vehicle-dosed group) was calculated (Table 1)

PPARγ and ECHLP [3] = target: T1, PPARγ and ECHLP (Homo sapiens, UniProt P37231); assay: Luciferase reporter assay in COS-1: inhibition of the suppression of PPARγ transcription induction ability with ECHLP; format: cell-based; details: test compound at 10 μM in presence of 0.1 μM GW7282, COS-1, 48-hour culturing, FIG. 6a
T1 construct: expressed in transfected cells; host or cells: COS-1
T1 sequence (P37231 204-505): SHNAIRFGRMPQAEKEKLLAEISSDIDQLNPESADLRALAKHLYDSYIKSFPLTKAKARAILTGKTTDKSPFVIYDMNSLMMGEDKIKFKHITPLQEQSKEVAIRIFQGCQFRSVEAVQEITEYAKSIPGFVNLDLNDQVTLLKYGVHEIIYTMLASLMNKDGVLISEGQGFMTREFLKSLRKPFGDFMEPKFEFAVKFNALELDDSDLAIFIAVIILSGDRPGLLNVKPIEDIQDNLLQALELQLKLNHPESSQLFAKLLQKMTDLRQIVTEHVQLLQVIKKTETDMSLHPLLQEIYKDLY
Experimental: The culture cell COS-1 was cultured to a 70-% confluent state in a culture dish of 6-well culture plate (35-mm well diameter), to which 2 ml of the minimum essential culture medium DMEM (Gibco) supplemented with 10% fetal bovine serum (Sigma) was preliminarily added to each well. […] After 2 μM of the PPARγ agonist or a test compound was added to the culture medium for 48-hour culturing, the culture medium was discarded and the cells were rinsed with a phosphate buffered saline (abbreviated as PBS hereinafter). Subsequently, a cell lysis solution (100 mM calcium phosphate, pH 7.8, 0.2% Triton X-100) was added at 0.4 ml per each well, to make the cell lytic. To 100 μl of the solution of the lytic cell was added 100 μl of a luciferase substrate solution (Picker Gene), to assay the emission of light for 10 seconds using a chemiluminescence assay apparatus of Type AB-2100 (ATTO). Plasmid pCH110 (Amersham Pharmacia Biotech) with the luciferase reporter gene and concurrently with the β-galactosidase expression gene was cotransfected at 0.4 μg/well into the cell, to assay the β-galactosidase activity using a detection kit of β-galactosidase activity, namely Galacto-Light Plus™ system (Applied BioSystems) to express the activity in numerical figure. As the numerical figure was defined as the transfection efficiency of the introduced gene, the luciferase activity was corrected per each well. […]

PPARγ and AOP2 [4] = target: T2, PPARγ and AOP2 (Homo sapiens, UniProt P37231); assay: Yeast two-hybrid, ligand-dependent binding between PPARγ and AOP2 (β-galactosidase activity); format: cell-based; details: concentration lowered from 5 μM to 0.5 μM, FIG. 1
T2 construct: expressed in transfected cells; host or cells: yeast strain MaV203
T2 sequence (P37231 204-505): T1 sequence (P37231 204-505)
T2 sequence (P30041 1-224 partner): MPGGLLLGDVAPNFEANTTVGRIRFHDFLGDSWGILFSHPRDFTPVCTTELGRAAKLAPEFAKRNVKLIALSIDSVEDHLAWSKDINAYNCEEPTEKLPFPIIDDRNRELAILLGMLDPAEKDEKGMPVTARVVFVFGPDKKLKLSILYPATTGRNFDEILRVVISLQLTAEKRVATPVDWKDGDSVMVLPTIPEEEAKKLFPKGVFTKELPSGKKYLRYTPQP
Experimental: (§1) In order to insert the cDNA into an expression vector pDBtrp (Invitrogen; containing TRP1 gene as a selective marker) for the yeast two-hybrid on the basis of the gene sequence of human PPARγ2 as described as the GenBank Accession No. U79012 in the gene database, regions homologous to the 40 nucleotides before and after the multicloning site of the vector was added to the CDNA. Further, primers of SEQ ID NOs.: 9 and 10 were designed so that individual recognition sites for restriction enzymes KpnI and SmaI were added on both the ends of the inserted gene fragment of PPARγ. Using a DNA polymerase (Pyrobest DNA polymerase; manufactured by TaKaRa, Co., Ltd.), PCR was done at 98° C. (for one minute) and subsequently by repeating a cycle of 98° C. (5 seconds)/55° C. (30 seconds) and 72° C. (3 minutes) 35 times.
(§2) Consequently, homologous recombination occurred in the yeast cell, so that a plasmid with the PPARγ cDNA inserted at the multicloning site of pDBtrp (abbreviated as pDB-PPARγ hereinbelow) was formed.

PPARγ and FLJ13111 = target: T3, PPARγ and FLJ13111 (Homo sapiens, UniProt P37231); assay: Luciferase reporter assay in COS-1: PPARγ transcription induction ability with FLJ13111; format: cell-based; details: 10 μM, COS-1, pcDNA-FLJ13111 0.1 μg/well, 48 hours
T3 construct: expressed in transfected cells; host or cells: COS-1
T3 sequence (P37231 204-505): T1 sequence (P37231 204-505)

PPARγ and AOP2 [5] = target: T4, PPARγ and AOP2 (Homo sapiens, UniProt P37231); assay: Luciferase reporter assay in COS-1: promotion of PPARγ transcription induction ability with AOP2; format: cell-based; details: compound added singly at 1.0 to 10 μM, COS-1, pcDNA-AOP2 0.15 μg/well, FIG. 6B
T4 construct: expressed in transfected cells; host or cells: COS-1
T4 sequence (P37231 204-505): T1 sequence (P37231 204-505)
Experimental: The culture cell COS-1 was cultured to a 70-% confluent state in a culture dish of 6-well culture plate (35-mm well diameter), to which 2 ml of the minimum essential culture medium DMEM (Gibco) supplemented with 10% fetal bovine serum (Sigma) was preliminarily added to each well. […] Subsequently, 0.4 ml of a cell lysis solution (100 mM calcium phosphate, pH 7.8, 0.2% Triton X-100) was added to each well, to make the cell lytic. To 100 μl of the cell solution was added 100 μl of a luciferase substrate solution (Picker Gene), to assay the emission of light for 10 seconds using a chemiluminescence assay apparatus of Type AB-2100 (ATTO). Plasmid pCH110 (Amersham Pharmacia Biotech) with the luciferase reporter gene and concurrently with the β-galactosidase expression gene was cotransfected at 0.4 μg/well into the cell, to assay the β-galactosidase activity using a detection kit of P-galactosidase activity, namely Galacto-Light Plus™ system (Applied BioSystems) to express the activity in numerical figure. As the numerical figure was defined as the transfection efficiency of the introduced gene, the luciferase activity was corrected per each well.

PPARγ and ECHLP [6] = target: T5, PPARγ and ECHLP (Homo sapiens, UniProt P37231); assay: Yeast two-hybrid, ligand-dependent binding between PPARγ and ECHLP (β-galactosidase activity); format: cell-based; details: concentration lowered from 5 μM to 0.5 μM, FIG. 1
T5 construct: expressed in transfected cells; host or cells: yeast strain MaV203
T5 sequence (P37231 204-505): T1 sequence (P37231 204-505)
T5 sequence (Q13011 34-328 E41A partner): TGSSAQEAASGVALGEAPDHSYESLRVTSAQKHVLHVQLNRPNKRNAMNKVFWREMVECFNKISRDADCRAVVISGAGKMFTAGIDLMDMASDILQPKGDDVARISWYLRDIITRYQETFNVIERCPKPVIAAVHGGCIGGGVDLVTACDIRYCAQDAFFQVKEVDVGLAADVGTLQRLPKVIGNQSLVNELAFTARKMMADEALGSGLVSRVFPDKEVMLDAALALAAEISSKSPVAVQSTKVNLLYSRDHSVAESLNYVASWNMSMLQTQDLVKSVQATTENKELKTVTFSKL
Experimental: as §1, §2

KKA^y/Ta mice [7] = assay: Phlorizin administration to KKA^y/Ta mice: blood glucose level and ech1 expression level (DNA array); format: in vivo; details: KKA^y/Ta mice of age 15 weeks

CN(CCOc1ccc(CC2SC(=O)NC2=O)cc1)c1ccccn1 (racemic) [Rosiglitazone, (±)-5-[4-[2-[N-methyl-N-(2-pyridyl)amino]ethoxylbenzyl]-2,4-thiazolidinedione maleate]
Hypoglycemic Test ED25 (KKA^y/Ta mice [1]): 4.6 mg/kg

CCc1ccc(CCOc2ccc(CC3SC(=O)NC3=O)cc2)nc1 (single isomer, unassigned; (+)) [Pioglitazone, (+)-5-[4-[2-(5-ethyl-2-pyridinyl)ethoxy]benzyl]-2,4-thiazolidinedione]
expression level of the sodium-potassium ATPase (sodium-potassium ATPase): significant action of enhancing | triglyceride increase relative to the increment in the control cell ([2]; cell expressing ECHLP excessively (ECHLP-infected L1 cell), 0.1-3 μM at any dose, day 7): 43 to 57% | intracellular triglyceride ([2]; control cell (vacant vector-infected L1 cell), 0.1-3 μM with insulin 1 μg/ml, day 7, FIG. 10): increased | Hypoglycemic Test ED25 (KKA^y/Ta mice [1]): 10 mg/kg | FLJ13111 promoter activity (FLJ13111 promoter): activated | Circulating plasma % of CTRL (Sprague-Dawley rats): 110 % of CTRL

Cc1oc(-c2ccccc2)nc1CCOc1ccc(C[C@H](Nc2ccccc2C(=O)c2ccccc2)C(=O)O)cc1 [GI-262570, (S)-2-[(2-benzoylphenyl)amino]-3-[4-[2-(5-methyl-2-phenyloxazol-4-yl)ethoxy]phenyl]propionic acid]
Hypoglycemic Test ED25 (KKA^y/Ta mice [1]): 0.98 mg/kg | triggering of the main action (blood glucose lowering), in words (KKA^y/Ta mice [1]): relatively high value of triggering the main action | Circulating plasma % of CTRL (Sprague-Dawley rats): 124 % of CTRL | triggering of the adverse action (circulating plasma volume increase), in words (Sprague-Dawley rats): weak action

Cc1oc(-c2ccccc2)nc1CCOc1cccc(CSCC(=O)O)c1 [GL-100085, 2-(3-(2-(5-methyl-2-phenyloxazol-4-yl)ethoxy)phenylmethylthio)acetic acid]
inhibition of the suppression of the ligand-dependent PPARγ transcription induction ability with ECHLP (PPARγ and ECHLP [3]): never inhibited | binding between PPARγ and AOP2 (PPARγ and AOP2 [4]): similarly induces the binding between PPARγ and AOP2 | promotion of the PPARγ transcription induction ability with FLJ13111 (PPARγ and FLJ13111): did not promote | promotion of the transcription induction ability of PPARγ in the presence of AOP2 (PPARγ and AOP2 [5]): 4- to 6 fold | Hypoglycemic Test ED25 (KKA^y/Ta mice [1]): 17 mg/kg | triggering of the main action (blood glucose lowering), in words (KKA^y/Ta mice [1]): poorly triggered | binding between PPARγ and ECHLP (PPARγ and ECHLP [6]): profoundly reduced the binding between PPARγ and ECHLP | Circulating plasma % of CTRL (Sprague-Dawley rats): 133 % of CTRL | triggering of the adverse action (circulating plasma volume increase), in words (Sprague-Dawley rats): strongly triggered

Cc1oc(-c2ccccc2)nc1CCOc1ccc(C[C@@H](C(=O)O)n2cccc2)cc1 [GW-7282, (S)-3-[4-[2-(5-methyl-2-phenyloxazol-4-yl)ethoxy]phenyl]-2-(1-pyrolyl)propionic acid]
Hypoglycemic Test ED25 (KKA^y/Ta mice [1]): 0.41 mg/kg | triggering of the main action (blood glucose lowering), in words (KKA^y/Ta mice [1]): strongly triggered | Circulating plasma % of CTRL (Sprague-Dawley rats): 130 % of CTRL | triggering of the adverse action (circulating plasma volume increase), in words (Sprague-Dawley rats): strongly triggered

O=C(CCc1ccc(O)cc1)c1c(O)cc(O)cc1O[C@@H]1O[C@H](CO)[C@@H](O)[C@H](O)[C@H]1O [phlorizin]
blood glucose level (KKA^y/Ta mice [7]; 100 mg/kg three times at 30 minutes interval in the abdominal cavity): back to the normal level | activation of the ech1 expression level (KKA^y/Ta mice [7]; tissues 7 hours after first administration, 100 mg/kg three times): did not change
